Source: patent publication US20220306585A1, “PYRAZOLE DERIVATIVES FOR CONTROLLING ARTHROPODS” (Bayer Animal Health GmbH, priority 2019, published 2022)
≈ marks a conversion by molar mass, not a printed value.

Experiment: Measurement of solubility in buffer at pH 6.5
Format: physicochemical
Conditions: aqueous buffer, kinetic from dmso stock; PBS buffer pH 6.5, shaken 24 h at rt, LC-MSMS; read-out: Solubility of example compounds at pH 6.5
Outline: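 DMSO stock (50 g/L) diluted into PBS pH 6.5, nominal final […], shaken 24 h at rt. After centrifugation, supernatant concentration quantified by LC-MSMS against a 1.2–600 ng/mL calibration curve.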

- solubility at 24 h: 18 µg/mL (≈ 23.2 µM)
Structure (SMILES): N#CC1(N(COC(=O)/C=C/C(=O)O)C(=O)c2cc(-c3cnn(-c4c(Cl)cc(C(F)(C(F)(F)F)C(F)(F)F)cc4OC(F)(F)F)c3)ccc2Cl)CC1 [Example 13, (2E)-4-{[(2-Chloro-5-{1-[2-chloro-4-(1,1,1,2,3,3,3-heptafluoropropan-2-yl)-6-(trifluoromethoxy)phenyl]-1H-pyrazol-4-yl}benzoyl)(1-cyanocyclopropyl)amino]methoxy}-4-oxobut-2-enoic acid]
